Target: GABA-B receptor (Rattus norvegicus (Rat), UniProt O88871+Q9Z0U4)
Assay: [35S]GTPgS binding assay, rat cortical membranes, in presence of EC25 GABA
Format: biochemical
Settings: rat brain cortex membranes; in presence of 1 μM GABA (EC25); positive allosteric modulation
Protocol: Preparation of Rat Brain Membranes for Native Receptor Assays
Membranes from rat brain cortex were prepared as described in detail by Olpe et al. and stored at concentrations of 1.66 mg/mL protein at −80° C. until required. (Olpe, H.-R, et al. Eur J Pharmacol 1990; 187: 27-38).
[^35S] GTPgS Binding Assay
The composition of the assay mixtures [in a final volume of 200 μL in 96-well U-bottom plates (Greiner) was as follows: 50 mM Tris-HCl buffer, pH 7.7, 10 mM MgCl2, 0.2 mM EGTA, 2 mM CaCl2, 100 mM NaCl, 20 µM guanosine 5′-diphosphate (Sigma), 0.3 nM [^35S]GTPgS (1250 Ci/mmol (PerkinElmer)), and the test compounds at increasing concentrations (from 10 nM up to […]), […] of rat cortical membranes, and a concentration of […], that has been observed in previous experiments to correspond to the EC25, a concentration that gives 25% of the maximal response of GABA. The samples were incubated at room temperature for 60 minutes on a shaker. The incubation was stopped by rapid vacuum filtration over glass-fiber filter plates (UniFilter-96 well, GF/B membrane plates, PerkinElmer) using a 96-well plate harvester (TOMTEK© Harvester). The UniFilter plate was washed five times with ice-cold wash buffer (50 mM Tris-HCl buffer, pH 7.7, 10 mM MgCl2, and 100 mM NaCl. After filtration the plate was dried for 90 minutes at 55° C. The plates were closed on the bottom with black sealing membranes, and liquid scintillation cocktail (35 μL, Betaplate Scint, PerkinElmer) was added to each well. After sealing the top of the plate, an additional incubation step of 90 minutes at room temperature followed before measuring the plate. The amount of membrane-bound [^35S]GTPgS was measured using a 96-well plate reader (Microbeta®, PerkinElmer). Nonspecific binding was measured in the presence of unlabeled 10 μM of GTPgS (Millipore) and without GABA. Basal binding was measured in the absence of 1 μM GABA, and maximal binding was measured in the presence of GABA using 1 mM GABA concentrations.
Data analysis. The concentration-response curves of compounds of the present disclosure in the presence of EC25 of GABA-B receptor agonist were generated using the GraphPad Prism® program (GraphPad Software, San Diego, Calif.). Data was normalized using basal binding as 0% and maximal binding as 100%. The curves were fitted by nonlinear regression allowing determination of EC50 values from sigmoidal dose-response curves. Each curve was performed using triplicate sample per date point and 10 concentrations.

GABA-B receptor, sequence (Q9Z0U4 17-960): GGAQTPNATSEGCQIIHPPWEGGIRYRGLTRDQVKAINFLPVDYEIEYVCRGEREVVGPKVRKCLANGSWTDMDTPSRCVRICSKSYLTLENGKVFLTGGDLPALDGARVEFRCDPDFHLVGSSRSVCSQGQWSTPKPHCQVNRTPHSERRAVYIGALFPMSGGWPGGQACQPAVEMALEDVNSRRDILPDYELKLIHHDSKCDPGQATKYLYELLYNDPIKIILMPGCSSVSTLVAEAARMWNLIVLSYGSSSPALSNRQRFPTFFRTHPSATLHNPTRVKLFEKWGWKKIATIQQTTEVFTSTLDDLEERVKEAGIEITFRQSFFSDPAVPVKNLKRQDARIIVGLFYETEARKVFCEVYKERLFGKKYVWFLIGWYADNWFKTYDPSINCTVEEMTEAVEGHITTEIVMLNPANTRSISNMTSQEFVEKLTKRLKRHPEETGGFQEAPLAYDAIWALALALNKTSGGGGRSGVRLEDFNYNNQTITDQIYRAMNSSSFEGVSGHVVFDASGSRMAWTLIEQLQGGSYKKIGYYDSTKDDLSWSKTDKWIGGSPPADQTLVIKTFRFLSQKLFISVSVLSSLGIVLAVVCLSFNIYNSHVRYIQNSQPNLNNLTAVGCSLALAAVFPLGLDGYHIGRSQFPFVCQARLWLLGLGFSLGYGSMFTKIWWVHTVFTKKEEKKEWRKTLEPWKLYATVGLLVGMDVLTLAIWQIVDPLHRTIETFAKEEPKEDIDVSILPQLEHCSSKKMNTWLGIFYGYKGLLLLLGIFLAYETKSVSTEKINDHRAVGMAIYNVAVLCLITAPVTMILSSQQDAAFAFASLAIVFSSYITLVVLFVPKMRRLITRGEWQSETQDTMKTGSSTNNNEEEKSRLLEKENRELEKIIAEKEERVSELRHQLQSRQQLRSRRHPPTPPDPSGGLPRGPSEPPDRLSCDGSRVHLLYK
GABA-B receptor, sequence (O88871 41-940): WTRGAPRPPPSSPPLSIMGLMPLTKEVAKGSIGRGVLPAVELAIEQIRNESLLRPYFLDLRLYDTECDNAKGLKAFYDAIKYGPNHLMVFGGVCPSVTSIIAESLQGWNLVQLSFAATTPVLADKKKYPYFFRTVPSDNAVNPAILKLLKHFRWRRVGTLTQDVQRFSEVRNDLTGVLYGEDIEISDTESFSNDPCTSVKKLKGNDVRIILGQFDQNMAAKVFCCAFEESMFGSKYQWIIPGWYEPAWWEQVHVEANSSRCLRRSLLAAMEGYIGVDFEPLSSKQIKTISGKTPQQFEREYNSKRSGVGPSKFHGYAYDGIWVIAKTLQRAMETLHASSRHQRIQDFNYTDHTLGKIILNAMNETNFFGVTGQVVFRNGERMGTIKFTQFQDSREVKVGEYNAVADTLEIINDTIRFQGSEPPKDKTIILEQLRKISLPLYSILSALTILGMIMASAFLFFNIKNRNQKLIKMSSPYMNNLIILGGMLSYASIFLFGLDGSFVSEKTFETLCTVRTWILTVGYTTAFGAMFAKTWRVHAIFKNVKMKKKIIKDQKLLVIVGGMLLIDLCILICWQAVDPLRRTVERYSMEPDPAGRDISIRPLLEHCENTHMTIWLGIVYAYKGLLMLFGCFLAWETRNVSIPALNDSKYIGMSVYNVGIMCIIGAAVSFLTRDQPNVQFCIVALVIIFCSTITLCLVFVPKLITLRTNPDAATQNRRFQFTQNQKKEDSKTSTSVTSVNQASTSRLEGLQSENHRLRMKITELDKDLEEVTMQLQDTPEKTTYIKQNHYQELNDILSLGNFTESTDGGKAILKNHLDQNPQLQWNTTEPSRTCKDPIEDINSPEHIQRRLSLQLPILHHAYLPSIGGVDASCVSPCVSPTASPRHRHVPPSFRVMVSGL

Row | SMILES | EC50 [nM]
1 | Cc1cc(N2CCNC(=O)C2CCO)n2nc(C(C)c3ccc(C(F)(F)F)cc3)cc2n1 (stereo not shown) [Example 8-13, 3-(2-hydroxyethyl)-4-(5-methyl-2-{1-[4-(trifluoromethyl)phenyl]ethyl}pyrazolo[1,5-a]pyrimidin-7-yl)piperazin-2-one] | 2550
2 | Cc1cc(N2CCC[C@H](O)C2)n2nc(C(C)c3ccc(Cl)cn3)cc2n1 (stereo partly drawn) [Example 9-3, (3S)-1-{2-[1-(5-chloropyridin-2-yl)ethyl]-5-methylpyrazolo[1,5-a]pyrimidin-7-yl}piperidin-3-ol] | 2020
3 | Cc1cc(NC2(C(F)(F)F)CC2)n2nc(Cc3ccc(Cl)cc3)cc2n1 [Example 1-15, 2-(4-chlorobenzyl)-5-methyl-N-[1-(trifluoromethyl)cyclopropyl]pyrazolo[1,5-a]pyrimidin-7-amine] | 1180
4 | Cc1cc(N2CCCC(F)(F)C2)n2nc(C(C)c3ccc(Cl)cc3)cc2n1 (stereo not shown) [Example 2-7, 2-[1-(4-chlorophenyl)ethyl]-7-(3,3-difluoropiperidin-1-yl)-5-methylpyrazolo[1,5-a]pyrimidine] | 185
5 | CC(=O)N[C@@H]1CCN(c2cc(C)nc3cc(C(C)c4ccc(Cl)cc4)nn23)C1 (stereo partly drawn) [Example 2-23, N-[(3R)-1-{2-[1-(4-chlorophenyl)ethyl]-5-methylpyrazolo[1,5-a]pyrimidin-7-yl}pyrrolidin-3-yl]acetamide] | 2730
6 | Cc1cc(N2CCC[C@H](O)C2)n2nc(C(C)c3ccc(Cl)cc3)cc2n1 (stereo partly drawn) [Example 2-10, (3S)-1-{2-[1-(4-chlorophenyl)ethyl]-5-methylpyrazolo[1,5-a]pyrimidin-7-yl}piperidin-3-ol] | 152
7 | Cc1cc(NC2CC(F)C2)n2nc(C(C)c3ccc(Cl)cn3)cc2n1 (stereo not shown) [Example 9-8, 2-[1-(5-chloropyridin-2-yl)ethyl]-N-(3-fluorocyclobutyl)-5-methylpyrazolo[1,5-a]pyrimidin-7-amine] | 9300
8 | Cc1cc(N2CCCCC2CCO)n2nc(Cc3ccc(Cl)cc3)cc2n1 (stereo not shown) [Example 1-1, 2-{1-[2-(4-chlorobenzyl)-5-methylpyrazolo[1,5-a]pyrimidin-7-yl]piperidin-2-yl}ethanol] | 1400
9 | Cc1cc(N2CC[C@@H](NS(C)(=O)=O)C2)n2nc(Cc3ccc(Cl)cc3)cc2n1 [Example 10-1, N-{(3R)-1-[2-(4-chlorobenzyl)-5-methylpyrazolo[1,5-a]pyrimidin-7-yl]pyrrolidin-3-yl}methanesulfonamide] | > 10000
10 | Cc1cc(NC2CC(F)C2)n2nc(C(C)c3ccc(C(F)(F)F)cc3)cc2n1 (stereo not shown) [Example 8-6, N-(3-fluorocyclobutyl)-5-methyl-2-{1-[4-(trifluoromethyl)phenyl]ethyl}pyrazolo[1,5-a]pyrimidin-7-amine] | 509
11 | Cc1cc(N2CCCCC2CCO)n2nc(CC34CC5CC(CC(C5)C3)C4)cc2n1 (stereo not shown) [Example 7-1, 2-{1-[5-methyl-2-(tricyclo[3.3.1.1^3′]dec-1-ylmethyl)pyrazolo[1,5-a]pyrimidin-7-yl]piperidin-2-yl}ethanol] | 1080
12 | Cc1cc(NC(C)(C)C)n2nc(Cc3ccc(Cl)cc3)cc2n1 [Example 1-14, N-tert-butyl-2-(4-chlorobenzyl)-5-methylpyrazolo[1,5-a]pyrimidin-7-amine] | 1030
13 | CCC(c1ccc(Cl)cc1)c1cc2nc(C)cc(N3CCCC(F)(F)C3)n2n1 (stereo not shown) [Example 3-2, 2-[1-(4-chlorophenyl)propyl]-7-(3,3-difluoropiperidin-1-yl)-5-methylpyrazolo[1,5-a]pyrimidine] | 14
14 | Cc1cc(N2CCCCC2CCO)n2nc(C(C)c3ccc(C(F)(F)F)cc3)cc2n1 (stereo not shown) [Example 8-2, 2-[1-(5-methyl-2-{1-[4-(trifluoromethyl)phenyl]ethyl}pyrazolo[1,5-a]pyrimidin-7-yl)piperidin-2-yl]ethanol] | 87
15 | Cc1cc(N2CCCC(F)(F)C2)n2nc(C(C)c3ccc(Cl)cn3)cc2n1 (stereo not shown) [Example 9-4, 2-[1-(5-chloropyridin-2-yl)ethyl]-7-(3,3-difluoropiperidin-1-yl)-5-methylpyrazolo[1,5-a]pyrimidine] | 628
16 | Cc1cc(NC(C)(C)C)n2nc(C(C)c3ccc(C(F)(F)F)cc3)cc2n1 (stereo not shown) [Example 8-19, N-tert-butyl-5-methyl-2-{1-[4-(trifluoromethyl)phenyl]ethyl}pyrazolo[1,5-a]pyrimidin-7-amine] | 274

Row | SMILES | EC50 [nM]
17 | Cc1cc(N2CCC3(COC3)C2)n2nc(C(C)c3ccc(C(F)(F)F)cc3)cc2n1 (stereo not shown) [Example 8-3, 5-methyl-7-(2-oxa-6-azaspiro[3.4]oct-6-yl)-2-{1-[4-(trifluoromethyl)phenyl]ethyl}pyrazolo[1,5-a]pyrimidine] | 420
18 | Cc1cc(N2CCC[C@H](CO)C2)n2nc(Cc3ccc(Cl)cc3)cc2n1 [Example 1-8, {(3S)-1-[2-(4-chlorobenzyl)-5-methylpyrazolo[1,5-a]pyrimidin-7-yl]piperidin-3-yl}methanol] | 1300
19 | Cc1cc(N2CCC2)n2nc(C(C)c3ccc(Cl)cc3)cc2n1 (stereo not shown) [Example 2-12, 7-(azetidin-1-yl)-2-[1-(4-chlorophenyl)ethyl]-5-methylpyrazolo[1,5-a]pyrimidine] | 2820
20 | Cc1cc(N2CCCCC2CO)n2nc(C(C)c3ccc(C(F)(F)F)cc3)cc2n1 (stereo not shown) [Example 8-9, [1-(5-methyl-2-{1-[4-(trifluoromethyl)phenyl]ethyl}pyrazolo[1,5-a]pyrimidin-7-yl)piperidin-2-yl]methanol] | 344
21 | Cc1cc(N2CC3(CCOCC3)C2)n2nc(C(C)c3ccc(C(F)(F)F)cc3)cc2n1 (stereo not shown) [Example 8-4, 5-methyl-7-(7-oxa-2-azaspiro[3.5]non-2-yl)-2-{1-[4-(trifluoromethyl)phenyl]ethyl}pyrazolo[1,5-a]pyrimidine] | 827
22 | Cc1cc(NC(C)(C)C)n2nc(C(C)c3ccc(Cl)cn3)cc2n1 (stereo not shown) [Example 9-6, N-tert-butyl-2-[1-(5-chloropyridin-2-yl)ethyl]-5-methylpyrazolo[1,5-a]pyrimidin-7-amine] | 798
23 | Cc1cc(NCC2CC(F)(F)C2)n2nc(C(C)c3ccc(Cl)cc3)cc2n1 (stereo not shown) [Example 2-16, 2-[1-(4-chlorophenyl)ethyl]-N-[(3,3-difluorocyclobutyl)methyl]-5-methylpyrazolo[1,5-a]pyrimidin-7-amine] | 586
24 | Cc1cc(N[C@@H](C)C(F)(F)F)n2nc(Cc3ccc(Cl)cc3)cc2n1 [Example 1-18, 2-(4-chlorobenzyl)-5-methyl-N-[(2S)-1,1,1-trifluoropropan-2-yl]pyrazolo[1,5-a]pyrimidin-7-amine] | 2690
25 | Cc1cc(N2CCC3(CC2)COC3)n2nc(C(C)c3ccc(C(F)(F)F)cc3)cc2n1 (stereo not shown) [Example 8-21, 5-methyl-7-(2-oxa-7-azaspiro[3.5]non-7-yl)-2-{1-[4-(trifluoromethyl)phenyl]ethyl}pyrazolo[1,5-a]pyrimidine] | 561
26 | Cc1cc(N2CCCCC2CCO)n2nc(Cc3cccc(C(F)(F)F)c3)cc2n1 (stereo not shown) [Example 6-1, 2-(1-{5-methyl-2-[3-(trifluoromethyl)benzyl]pyrazolo[1,5-a]pyrimidin-7-yl}piperidin-2-yl)ethanol] | 1820
27 | CCCC(c1ccc(Cl)cc1)c1cc2nc(C)cc(N3CCCCC3CCO)n2n1 (stereo not shown) [Example 5-1, 2-(1-{2-[1-(4-chlorophenyl)butyl]-5-methylpyrazolo[1,5-a]pyrimidin-7-yl}piperidin-2-yl)ethanol] | 3
28 | Cc1cc(N2CCCC(F)(F)C2)n2nc(Cc3ccc(Cl)cc3)cc2n1 [Example 1-4, 2-(4-chlorobenzyl)-7-(3,3-difluoropiperidin-1-yl)-5-methylpyrazolo[1,5-a]pyrimidine] | 2890
29 | Cc1cc(N2CCCCC2=O)n2nc(C(C)c3ccc(C(F)(F)F)cc3)cc2n1 (stereo not shown) [Example 8-18, 1-(5-methyl-2-{1-[4-(trifluoromethyl)phenyl]ethyl}pyrazolo[1,5-a]pyrimidin-7-yl)piperidin-2-one] | 746
30 | Cc1cc(NC2CC(F)C2)n2nc(C(C)c3ccc(Cl)cc3)cc2n1 (stereo not shown) [Example 2-14, 2-[1-(4-chlorophenyl)ethyl]-N-(3-fluorocyclobutyl)-5-methylpyrazolo[1,5-a]pyrimidin-7-amine] | 165
31 | Cc1cc(N2CCCC(F)(F)C2)n2nc(C(C)c3ccc(C(F)(F)F)cc3)cc2n1 (stereo not shown) [Example 8-17, 7-(3,3-difluoropiperidin-1-yl)-5-methyl-2-{1-[4-(trifluoromethyl)phenyl]ethyl}pyrazolo[1,5-a]pyrimidine] | 760

Reference: patent US9828381B2, “Substituted pyrazolopyrimidines and method of use” (AbbVie Deutschland GmbH & Co. KG, priority 2015, dated 2017)
